Assay results as given in paper PMC9298352, “Design, Synthesis and Structural Analysis of Glucocerebrosidase Imaging Agents” (Chemistry (Weinheim an Der Bergstrasse, Germany), 2021).
Read-outs that look alike come from different tables or passages of the source.

Experiments:
[1] = target: T1, GBA in mouse brain lysate (Mus musculus, UniProt P17439); experiment: Fluorescent labeling of mouse brain lysate, GBA; type: biochemical; conditions: 37 °C
T1 construct: from tissue; host or cells: mouse brain
T1 sequence (P17439 20-515): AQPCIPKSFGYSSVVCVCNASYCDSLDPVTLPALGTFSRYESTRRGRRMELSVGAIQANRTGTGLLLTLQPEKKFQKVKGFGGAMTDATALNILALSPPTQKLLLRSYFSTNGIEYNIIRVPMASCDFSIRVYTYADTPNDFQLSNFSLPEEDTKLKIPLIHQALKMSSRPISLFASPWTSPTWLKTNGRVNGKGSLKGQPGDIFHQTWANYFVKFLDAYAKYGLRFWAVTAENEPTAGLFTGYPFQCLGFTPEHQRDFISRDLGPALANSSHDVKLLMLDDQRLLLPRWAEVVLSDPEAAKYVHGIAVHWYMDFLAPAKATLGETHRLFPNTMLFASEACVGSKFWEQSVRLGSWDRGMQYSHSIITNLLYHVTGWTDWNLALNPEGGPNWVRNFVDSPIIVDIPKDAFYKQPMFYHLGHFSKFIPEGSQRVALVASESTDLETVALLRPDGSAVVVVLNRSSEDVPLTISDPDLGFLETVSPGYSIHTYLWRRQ
Method: We next investigated their labeling efficiency and selectivity toward GBA in mouse brain lysate at pH 5.2 (containing 0.2 % taurocholate and 0.1 % Triton‐100) and pH 5.8 as respective optimal conditions for GBA and GBA2 activities (Figure 7). […] Importantly, no labelling of GBA2 was observed up to 1000 nM, showing good GBA selectivity.
Labeling by broad‐spectrum β‐glucosidase ABP 8 is shown for comparison (100 nM, pH 5.2 or pH 5.8, 30 min, 37 °C).
Fluorescent labeling with broad‐spectrum ABP 8 was performed at 100 nM ABP concentration at 37 °C for 30 min at pH 5.2 (with 0.1 % (v/v) Triton X‐100 and 0.2 % (w/v) sodium taurocholate) or pH 5.8 respectively. Samples were then denatured with 4 μL Laemmli (5x) sample buffer and heated at 98 °C for 5 minutes. Proteins were resolved by electrophoresis in 10 % SDS‐PAGE gels, running at a constant of 90 V for 30 minutes followed by 120 V for approximately 60 minutes. Wet slab gels were scanned on fluorescence using a Typhoon FLA9500 Imager (GE Healthcare) using λEX 635 nm; λEM >665 nm and images were processed using ImageLab 5.2.1 (BioRad).

[2] = target: T2, recombinant human GBA (rhGBA, Imiglucerase) (Homo sapiens, UniProt P04062, R534H); experiment: In vitro apparent IC50, fluorogenic substrate assay on rhGBA; type: biochemical
T2 construct: purchased Sanofi Genzyme (Cambridge, MA, USA)
T2 sequence (P04062 40-536 R534H): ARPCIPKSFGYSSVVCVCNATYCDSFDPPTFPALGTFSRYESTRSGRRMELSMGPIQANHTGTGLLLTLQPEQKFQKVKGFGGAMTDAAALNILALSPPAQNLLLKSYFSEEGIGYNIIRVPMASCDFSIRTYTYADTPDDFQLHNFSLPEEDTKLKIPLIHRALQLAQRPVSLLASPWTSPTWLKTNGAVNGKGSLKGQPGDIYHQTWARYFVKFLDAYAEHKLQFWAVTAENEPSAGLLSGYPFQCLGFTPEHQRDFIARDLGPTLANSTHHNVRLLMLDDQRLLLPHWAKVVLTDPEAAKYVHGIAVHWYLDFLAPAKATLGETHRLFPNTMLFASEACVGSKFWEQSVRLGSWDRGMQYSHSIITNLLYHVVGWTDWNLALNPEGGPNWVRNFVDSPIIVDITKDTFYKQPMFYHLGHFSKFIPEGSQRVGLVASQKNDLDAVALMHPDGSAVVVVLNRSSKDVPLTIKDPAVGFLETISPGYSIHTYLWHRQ
Method: All assays were performed in duplicate sets, each with 3 technical replicates at each inhibitor concentration. DMSO concentration was kept at 0.5 %–1 % (v/v) in all assays during incubation with compounds. In vitro apparent IC50 values were calculated by fitting data with [inhibitor] vs. response‐various slope (four parameters) function using Graphpad Prism 7.0 software. Average values and standard deviations were calculated from the two sets.

With CCCCCCCCN1[C@@H]2[C@H](Cn3cc(CNC(=O)CCCCC[N+]4=C(/C=C/C=C/C=C5/N(C)c6ccccc6C5(C)C)C(C)(C)c5ccccc54)nn3)[C@@H](O)[C@H](O)[C@@H](O)[C@@H]21 (stereo partly shown) [ABP 6] the “ABP concentration with significant labeling of GBA” value ([1]; pH 5.2 with 0.2 % taurocholate and 0.1 % Triton, 30 min) was 10 nM, the “ABP concentration with significant labeling of GBA” value ([1]; pH 5.8, 30 min) was 1000 nM and the IC50 ([2]; 3 hr pre-incubation, read-out: apparent IC50 value, GBA) was 53 nM. For the same molecule, the IC50 ([2]; apparent IC50, 3 h pre-incubation, 4-methylumbelliferyl-β-glucoside substrate, ± SD from technical duplicates, read-out: In vitro rhGBA IC50) was 53.1 ± 2.65 nM.
